Common to all, as to assay type: cell-based, human
One test deals with M1619 cells. In words: Intracellular reactive oxygen species, dichlorofluorescin probe. Conditions: CuSO4 0.2-1.6 μM. As to the method: Potential redox effects of disulfiram were studied in three sets of experiments. The importance of cellular glutathione (GSH) in mediating or modulating thiocarbamate toxicity was studied by measuring levels of intracellular GSH after treatment with disulfiram. […] Also, to assess whether a nonspecific antioxidant effect of disulfiram or PDTC might account for cellular growth inhibition, we studied the effect of the potent lipophilic antioxidant probucol (1.0 to 1,000 μM) on proliferation of malignant cell lines. […] A. Royall, et al., “Evaluation of 2′,7′-dichlorofluorescin and dihydrorhodamine 123 as fluorescent probes for intracellular H2O2 in cultured endothelial cells,” Archiv. Biochem. Biophys. 302:348-355 (1993)). […] Cells were plated in 24 well plastic plates at 50,000 cells per well and grown to confluence. Media was aspirated from wells and replaced with 100 μl medium containing 10 μM DCF-DA, and plates were incubated at 37° C. for 30 minutes. The DCF-DA containing media was aspirated, cells were washed twice with media alone and 100 μl fresh media was added to wells. […] The relative concentration of dichlorofluroescein was measured immediately by monitoring fluorescence at 37° C. using an excitation wavelength of 485 nm and emission wavelength of 535 nm.

In another test the test system is cyclin A. As to the kind of experiment: Immunoblot for cyclin A in M1619 cells. Conditions: CuSO4 1.6 μM alone; 24 hours. As to the method:
Cells were lysed and proteins were isolated and quantitated by immunoassay as previously detailed using 2 μg/ml of primary rabbit polyclonal antibodies against human bcl-2, p53, p21^WAF1/CiP1, cyclin A and cyclin B1, and peroxidase-labeled donkey polyclonal anti-rabbit IgG. Cells were placed on ice, washed twice with cold DPBS, scraped into 0.5 ml boiling buffer (10% [vol/vol] glycerol and 2% [wt/vol] sodium dodecyl sulfate [SDS] in 83 mM Tris, pH 6.8) and sheared by four passages through a pipette. Aliquots were removed for protein determination, using the BCA protein assay (Pierce). After 10% β-mercaptoethanol and 0.05% bromophenol blue were added, lysates were boiled for 5 min and stored at -80° C. until immunoblotting was performed. Proteins in defrosted samples were separated by SDS-polyacrylamide gel electrophoresis on 12% polyacrylamide gels (15 μg protein/lane) and electrotransferred to 0.45 μm Hybond ECL nitrocellulose membranes (Amersham Life Sciences) using the wet transblot method in transfer buffer (0.025 M Tris, 0.192 M glycine, 2.6 mM SDS, and 20%[vol/vol] methanol; pH 8.8) at 100 volts for 1 hour. Blots were blocked overnight at 4° C. with blocking buffer (PBS with 0.1% Tween 20) containing 5% fat-free milk powder (Carnation, Glendale, Calif.). After rinsing 5 times for 5 minutes each in PBS containing 0.1% Tween 20, blots were incubated for 1 hour at room temperature with 2.0 μg/ml of primary antibody. After rinsing again as above, blots were incubated for 1 hr at room temperature with horseradish peroxidase (HRP)-conjugated secondary antibody diluted 1:5,000 in blocking buffer. Immunoblots were rinsed again as above and detected via an enhanced chemiluminescence method (ECL Western blotting detection system, Amersham Life Science, Buckinghamshire, England). Autoradiographic film (X-OMAT AR, Eastman Kodak, Rochester, N.Y.) was exposed to immunoblots for 10, 30, or 60 seconds to obtain satisfactory images. Since disulfiram and copper disrupt transcription factor DNA binding to CRE, their effect on expression of cyclin A was studied. […]

The subject of a further test is M1619 melanoma cells. As to the kind of experiment: MTT proliferation assay, M1619 melanoma. To be noted: CuSO4 supplementation of medium without disulfiram. As to the method: Human malignant cell lines were obtained from American Type Tissue Culture Collection (Rockville, Md.). Melanoma cells lines CRL 1585 and 1619 were cultured in RPMI 1640 (GIBCO-BRL, Life Technologies, Grand Island, N.Y.) with 10% FBS and passed with nonenzymatic Cell Dissociation Solution® (Sigma). The prostate adenocarcinoma cell line CRL 1435 (PC-3) was also cultured in RPMI 1640 with 10% FBS but passed with 0.05% trypsin and 0.53 mM EDTA. The squamous lung carcinoma NCI-H520 and the adenosquamous lung carcinoma NCI-H596 cell lines were grown in RPMI 1640 supplemented with 10% FBS, 10 mM HEPES and 1.0 mM sodium pyruvate and passed with trypsin/EDTA. The small cell lung carcinoma NCI-H82 was cultured as a suspension in RPMI 1640 with 10% FBS. All of the above were grown in a 37° C. humidified environment containing 5% CO2/air. The breast carcinoma cell line MDA-MB-453 was grown in a 37° C. humidified environment with free gas exchange with atmospheric air using Leibovitz's L-15 medium with 2 mM L-glutamine and 10% FBS and was passed with trypsin/EDTA.
The effect of disulfiram (0.15 to 5.0 μM), diethyldithiocarbamate (DDC, 1.0 μM) or PDTC (0.625 to 5.0 μM) on proliferation of malignant cell lines was studied in cultures stimulated with 10% FBS. Cell numbers were quantitated 24-72 hours later. In some experiments disulfiram or PDTC were added immediately after cells were plated. In other experiments, cells were plated and allowed to grow for 24-72 hours before fresh media with disulfiram or PDTC was added, and cell numbers were assayed 24-72 hours later.
Finally, a number of dithiocarbamate effects on cells have been attributed to increasing the intracellular levels of copper ions. To further probe the role of copper in mediating cytotoxicity from disulfiram, cells were cultured with or without addition of the impermeate Cu^2+ chelator bathocuprioinedisulfonic acid (BCPS, 100 μM) added to medium to sequester Cu^2+ in the extracellular compartment. Cells were also treated 12 hours with various concentration of disulfiram (0.625 to 5.0 μM) and intracellular copper levels were measured as outlined below.
Proliferation of cultured cells was quantitated using a previously reported calorimetric method based upon metabolic reduction of the soluble yellow tetrazolium dye 3-[4,5-dimethylthiazol]-2yl-2,5-diphenyl tetrazolium bromide (MTT) to its insoluble purple formazan by the action of mitochondrial succinyl dehydrogenase (See, e.g., S. J. Hirst, et al., “Quantifying proliferation of cultured human and rabbit airway smooth muscle in response to serum and platelet derived growth factor,” Am. J. Respir. Cell Mol. Biol. 7:574-581 (1992); R. Dashtaki, et al. R., supra; S. S. Brar, et al., “Requirement for reactive oxygen species in serum-induced and platelet-derived growth factor-induced growth of airway smooth muscle,” J. Biol. Chem. 274:20017-20026 (1999)). This assay empirically distinguishes between dead and living cells. For proliferation studies, cells were seeded into 24-well uncoated plastic plates (Costar) at 50,000 cells per well and cultured with respective media and mitogens.

The results in this text go back to patent publication US6548540B2, “Method of treating cancer using dithiocarbamate derivatives” (Charlotte-Mecklenburg Hospital Authority, priority 1998, dated 2003).

The structures appear in SMILES notation.

Take `O=S(=O)([O-])[O-].[Cu+2]` [CuSO4, cupric sulfate]: the “generation of reactive oxygen species (dichlorofluorescein fluorescence vs baseline)” value in the test with M1619 cells is “not increased”. Also, the “cyclin A expression” value in the test with cyclin A was “little effect”. Also, the “cell growth, copper alone” value in the test on M1619 melanoma cells was “do not by themselves affect cell growth”.
